The results in this text go back to patent US8367659B2, “Oxazinyl isoflavonoid compounds, medicaments and use” (Marshall Edwards, Inc., priority 2007, dated 2013).

The test system of assay [1] is Rabbit kidney (RK-13) cells. Description: Toxicity to normal cells, rabbit kidney (RK-13) cells. The class given is cell-based. The following applies: Oryctolagus cuniculus, normal, non-transformed cells, read-out: IC50 μM, RK Rabbit Kidney. The procedure:
(§1) IC50 values were determined for each cell line. Cells were seeded in 96-well plates at an appropriate cell density as determined from growth kinetics analysis and cultured for 5 days in the absence and presence of the test compounds. Cell proliferation was assessed after the addition of 20 μl of 3-4,5 dimethylthiazol-2,5-diphenyl tetrazolium bromide (MTT, 2.5 mg/ml in PBS, Sigma) for 3-4 hrs at 37° C. according to manufacturer's instructions. IC50 values were calculated from semi-log plots of % of control proliferation on the y-axis against log dose on the x-axis.
(§2) The neonatal foreskin fibroblasts (NFF) were a gift from Dr. Peter Parsons (Queensland Institute of Medical Research). Rabbit kidney (RK-13) cells were obtained from Miller Whalley (Macquarie University). Both cell lines were cultured in RPMI supplemented with 10% FCS(CSL, Australia), penicillin (100 U/ml), streptomycin ([…]), L-glutamine (2 mM) and sodium bicarbonate (1.2 g/L), and cultured at 37° C. in a humidified atmosphere of 5% CO2. IC50 values were determined as described above.

Assay [2] deals with neonatal foreskin fibroblasts (NFF). Description: Toxicity to normal cells, neonatal foreskin fibroblasts. Conditions: Fibroblast; normal, non-transformed cells; read-out: IC50 μM, NFF Fibroblast. In kind it is cell-based. The procedure:
as §1, §2

Assay [3] is described as follows: Free radical scavenging with DPPH. The following applies: DPPH, 20 minutes, absorbance 517 nm; Table 4; read-out: Free radical scavenging ability EC50. The procedure:
The antioxidant (free radical trapping) activity of test compounds was assessed using the stable free radical compound 2,2-diphenyl-1-picrylhydrazyl (DPPH). A stock solution of DPPH was prepared at a concentration of […] in ethanol and mixed for 10 minutes prior to use. Test compounds at a concentration of 100 μM were reacted with DPPH for, 20 minutes, alter which time the absorbance at 517 nm was determined. Initial screening of was done at 100 μM. The change in absorbance at 517 nm was compared to a reagent blank (DPPH with ethanol alone). […] The IC50 values were estimated as the concentration of test compound that caused a 0.6 change in absorbance (with 1.2 absorbance units representing total scavenging of the DPPH radical).
The antioxidant (free radical trapping) activity of test compounds was assessed using the stable free radical compound 2,2-diphenyl-1-picrylhydrazyl (DPPH). A stock solution of DPPH was prepared […] in ethanol and mixed for 10 minutes prior to use. Initial screening of test compound at a concentration of 100 μM was reacted with DPPH for 20 minutes, after which time the absorbance at 517 nm was determined. The change in absorbance was compared to a reagent blank (DPPH with ethanol alone). […] The IC50 value was estimated as the concentration of test compound that causes a 0.6 change in absorbance (with 1.2 absorbance units representing total scavenging of the DPPH radical).
A general note: DPPH is a stable violet radical that fades when it is reduced.

In assay [4] the test system is NO synthesis in RAW 264.7 murine macrophages. In words: LPS-induced NO synthesis in RAW 264.7 murine macrophages (Griess). In kind it is cell-based, mouse. The following applies: 10 μM; relative to vehicle alone; FIG. 6. The procedure:
The mouse macrophage cell line RAW 264.7 was cultured in DMEM supplemented with foetal calf serum (FCS), […] glutamine and 50 U/ml penicillin/streptomycin. Cells were treated with either test compound (in 0.025% DMSO) or vehicle alone, and added one hour before 50 ng/ml LPS. After incubation for 24 h, culture media was collected for PGE2 or TXB2 measurement by ELISA (Cayman Chemical), and TNFα measurement using an ELISA (Becton Dickinson). Nitrite concentration is a quantitative indicator of NO production and was determined by the Griess Reaction. Briefly, 100 μL of Griess reagent was added to 50 μL of each supernatant in duplicate. The absorbance at 550 nm was measured (Molecular Devices, SpectraMax 250 microplate spectrophotometer, CA, USA), and nitrite concentrations were determined against a standard curve of sodium nitrite. The percentage nitrite inhibition was calculated as: [100−(nitrite concentration of sample/nitrite of vehicle control LPS cells)×100]. Results Test compounds were examined a concentration of 10 μM. […] Consequently, to assess the effect of test compounds on various analytes, cell viability was taken into consideration with the use of the formula: Actual effect of test compound=measured effect−(effect on cell viability×measured effect)
For orientation: Griess reagent forms a coloured azo dye with nitrite.

Assay [5] concerns MM200. In words: Anti-cancer activity, MM200 melanoma cells (MTT). In kind it is cell-based. Conditions: for IC50: 120 h, 5 days, MTT.
In assay [6] the test system is HPAC. In words: Anti-cancer activity, HPAC pancreatic cancer cells (MTT). The class given is cell-based. The following applies: Homo sapiens, 120 h, 5 days.
Assay [7] deals with CP70. In words: Anti-cancer activity, CP70 ovarian cancer cells (MTT). The class given is cell-based. Conditions: 120 h, 5 days.
For assay [8], the target named is T1, GAL4-PPARγ fusion protein (Homo sapiens, UniProt P37231).
T1 construct: host or cells: HEK293 (human embryonic kidney), stably transfected
In words: PPARγ activity in transfected HEK293 cells (beta-lactamase reporter). The class given is cell-based. Conditions: FIG. 13: 1 μM. The procedure:
Human HEK293 cells, stably transfected with the PPARγ ligand binding domain fused with the DNA binding domain of the GAL4 protein (GAL4-PPARγ fusion protein), produce beta-lactamase when incubated with PPARγ ligands. Transfected human kidney embryonic cells (Invitrogen Inc., Carlsbad, Calif.) were seeded onto matrigel in 96-well plates and allowed to attach overnight. The following day, vehicle alone (DMSO) or test compound at 1, 5 and 10 μM was added at varying concentrations to cells and incubated for 16-18 hours. Cells were then loaded with a FRET-based fluorescent substrate to assess beta-lactamase activity. Cells were protected from light, and incubated at room temperature for 2 h. Plates were read on a fluorescence plate reader with an excitation wavelength of 409 nm and emission wavelengths of 460 nm and 530 nm. Results were expressed as a ratio of these two wavelengths after the background (cell-free control wells) had been subtracted. PPARγ activity was thus determined by measuring beta-lactamase activity as assessed by a fluorescent product to substrate ratio.

Assay [9] relates to human umbilical vein smooth muscle cells (HUVSMC). In words: Proliferation of human umbilical vein smooth muscle cells (MTT). In kind it is cell-based. Conditions: 10 μM; 10% FCS, 5 days; FIG. 8. The procedure:
The effect of test compounds on human umbilical vein smooth muscle cells (HUVSMC) was examined. Cells were seeded into 96 well plates at a low seeding rate of 1.6×10^3 cells per well, and allowed to attach for 24 hours. The cells were then washed twice with medium without FCS and incubated in medium without FCS for 20 hours to serum starve them. Analogue was prepared in medium without FCS at 20 μM and added to the plates and incubated for one hour. Final analogue concentration was therefore 10 μM. The cells were then stimulated by adding medium +20% FCS, to give a final FCS concentration of 10%. The cells were incubated until the control cells i.e. those with FCS and no compound, were just confluent (5 days). An MTT assay was performed, and difference in absorbance in analogue treated cells from the control was calculated using the formula: test/control*100−100. Results
The effect of test compounds on human umbilical vein smooth muscle cells (HUVSMC), was examined. Cells, tissue explants from a neonate (HRI—passage 2), were seeded into 96 well plates at 1×10^3 cells per well, and allowed to attach for 24 hours. They were then washed twice and incubated in medium without foetal calf serum (FCS) for 24-48 hours to serum-starve them. Test compounds were prepared in medium without FCS and added to the plates and incubated for one hour. Medium with FCS was added to give a final concentration of 10% and the plates incubated for 4-5 days until the controls were just confluent.

In assay [10] the test system is TXB2 synthesis in RAW 264.7 murine macrophages. In words: LPS-induced TXB2 synthesis in RAW 264.7 murine macrophages. The class given is cell-based, mouse. Conditions: 10 μM; relative to vehicle alone; FIG. 4. The procedure: (§3) The mouse macrophage cell line RAW 264.7 was cultured in DMEM supplemented with foetal calf serum (FCS), […] glutamine and 50 U/ml penicillin/streptomycin. Cells were treated with either test compound (in 0.025% DMSO) or vehicle alone, and added one hour before 50 ng/ml LPS. After incubation for 24 h, culture media was collected for PGE2 or TXB2 measurement by ELISA (Cayman Chemical), and TNFα measurement using an ELISA (Becton Dickinson). Test compounds were examined a concentration of 10 μM. […] Consequently, to assess the effect of test compounds on various analytes, cell viability was taken into consideration with the use of the formula: Actual effect of test compound=measured effect−(effect on cell viability×measured effect)

The test system of assay [11] is cancer cell lines. Description: Anti-cancer activity, cancer cell lines tested as a group (MTT). The following applies: CP70, HPAC and MM200. In kind it is cell-based.
The subject of assay [12] is PGE2 synthesis in RAW 264.7 murine macrophages. Description: LPS-induced PGE2 synthesis in RAW 264.7 murine macrophages. The class given is cell-based, mouse. The following applies: 10 μM; relative to vehicle alone; FIG. 3. The procedure: as §3

Molecules are shown by their SMILES.

The IC50 is the point on the concentration scale where inhibition reaches its midpoint. A word on the EC50: it is the concentration that produces a half-maximal response.

T1 sequence (P37231 238-503 limits assumed): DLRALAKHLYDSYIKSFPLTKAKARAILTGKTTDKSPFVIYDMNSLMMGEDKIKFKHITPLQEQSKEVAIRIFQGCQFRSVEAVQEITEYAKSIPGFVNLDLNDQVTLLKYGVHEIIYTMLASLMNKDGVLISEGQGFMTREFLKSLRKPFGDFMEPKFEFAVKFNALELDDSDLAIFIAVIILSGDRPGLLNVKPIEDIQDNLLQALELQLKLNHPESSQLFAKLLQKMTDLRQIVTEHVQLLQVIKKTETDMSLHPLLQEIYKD
T1 sequence (P04386 1-147 partner limits assumed): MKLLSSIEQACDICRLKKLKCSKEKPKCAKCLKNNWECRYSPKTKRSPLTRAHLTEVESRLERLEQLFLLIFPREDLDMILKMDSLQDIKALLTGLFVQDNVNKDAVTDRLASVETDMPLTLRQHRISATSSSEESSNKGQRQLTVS

Regarding `CCCN1COc2cc3c(cc2C1)C=C(c1ccc(O)cc1)CO3` [Compound 3, 4-(3-Propyl-2,3,4,8-tetrahydrochromeno[6,7-e][1,3]oxazin-7-yl)phenol], the IC50 was 4.8 µM in assay [1]; 56.2 ± 12.6 µM in assay [2]; 8.9 ± 0.1 µM in assay [5]; 32.2 µM in assay [6]; 30.7 ± 22 µM in assay [7]. In assay [3], the EC50 was found to be 20 µM. The “mean change of LPS-induced NO synthesis” value in assay [4] is “greatest inhibition”. In addition, the “toxicity to the MM200 melanoma cell line” value in assay [5] is recorded as “selectively toxic”.

In the case of `Oc1ccc(C2=Cc3cc4c(cc3OC2)OCN(c2ccccc2)C4)cc1` [Compound 7, 4-(3-Phenyl-2,3,4,8-tetrahydrochromeno[6,7-e][1,3]oxazin-7-yl)phenol], the IC50 was determined as 56.6 µM in [1]; 48.8 ± 12.2 µM in [2]; 36.3 ± 6 µM in [5]; 48.8 µM in [6]; 9.98 ± 0.5 µM in [7]. The “PPARγ activation, increase in beta-lactamase activity over media only control” value in assay [8] was “PPARγ agonist activity”. Besides, the “effect on proliferation of HUVSMCs induced by FCS” value in assay [9] is listed as “significantly inhibited the proliferation”. Further, the EC50 in assay [3] amounted to 22.5 µM. Besides, in [4], the “mean change of LPS-induced NO synthesis” value is listed as “greatest inhibition”.

On to `COc1ccc(C2=C(c3ccc(O)cc3)COc3cc4c(cc32)CN(Cc2ccc(Cl)cc2)CO4)cc1` [Compound 24, 4-(3-(4-Chlorobenzyl)-6-(4-methoxyphenyl)-2,3,4,8-tetrahydrochromeno[6,7-e][1,3]oxazin-7-yl)-phenol], for which the “mean change of LPS-induced TXB2 synthesis” value in [10] was “greatest inhibition”. The EC50 in assay [3] was found to be 24 µM. In addition, the “mean change of LPS-induced NO synthesis” value in [4] is “greatest inhibition”. Further, the “activity against CP70, HPAC and MM200 cell lines” value in assay [11] is “active”. Moreover, the IC50 worked out at 14.6 µM in assay [5], 6.83 µM in assay [6] and 8.6 µM in [7]. The “mean change of LPS-induced PGE2 synthesis” value in assay [12] was “greatest inhibition”.
